Data as given in PubChem BioAssay AID248 (DTP/NCI, 2004).
Several values for one entry are separate records, joined by “and”; a condition that tells them apart may be missing. Equal values may be shown once. Inconclusive results and toxic doses are left out. Cut-off read from the data, not from the text of the source: active = T/C of 150% or more; inactive = T/C below 125%.

Tested on: L1210 leukemia ip in BDF1 mice, survival T/C
Experiment: NCI In Vivo Anticancer Drug Screen. Data for tumor model L1210 Leukemia (intraperitoneal) in B6D2F1 (BDF1) mice
Conditions: endpoint: mean survival time, higher = longer survival
Procedure, shortened: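 Read-out is survival time, reported as the treated-group measurement over the vehicle-control measurement.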

[1] = dose: 100.0 mg/kg/injection, schedule: Q01DX001 (ip), vehicle: Klucel (hydroxypropylcellulose) (HPC)
[2] = dose: 100.0 mg/kg/injection, schedule: Q04DX003 (ip), vehicle: Klucel (hydroxypropylcellulose) (HPC)
[3] = dose: 100.0 mg/kg/injection, schedule: Q04DX003 (ip), vehicle: saline with Tween-80
[4] = dose: 200.0 mg/kg/injection, schedule: Q01DX001 (ip), vehicle: Klucel (hydroxypropylcellulose) (HPC)
[5] = dose: 200.0 mg/kg/injection, schedule: Q01DX009 (ip), vehicle: saline
[6] = dose: 200.0 mg/kg/injection, schedule: Q04DX003 (ip), vehicle: Klucel (hydroxypropylcellulose) (HPC)
[7] = dose: 200.0 mg/kg/injection, schedule: Q04DX003 (ip), vehicle: saline with Tween-80
[8] = dose: 400.0 mg/kg/injection, schedule: Q01DX001 (ip), vehicle: Klucel (hydroxypropylcellulose) (HPC)
[9] = dose: 400.0 mg/kg/injection, schedule: Q01DX009 (ip), vehicle: saline
[10] = dose: 400.0 mg/kg/injection, schedule: Q04DX003 (ip), vehicle: Klucel (hydroxypropylcellulose) (HPC)
[11] = dose: 400.0 mg/kg/injection, schedule: Q04DX003 (ip), vehicle: saline with Tween-80
[12] = dose: 100.0 mg/kg/injection, schedule: Q01DX001 (ip), vehicle: saline
[13] = dose: 100.0 mg/kg/injection, schedule: Q04DX002 (ip), vehicle: Klucel (hydroxypropylcellulose) (HPC)
[14] = dose: 200.0 mg/kg/injection, schedule: Q01DX001 (ip), vehicle: saline
[15] = dose: 200.0 mg/kg/injection, schedule: Q04DX002 (ip), vehicle: Klucel (hydroxypropylcellulose) (HPC)
[16] = dose: 400.0 mg/kg/injection, schedule: Q01DX001 (ip), vehicle: saline
[17] = dose: 100.0 mg/kg/injection, schedule: Q01DX009 (ip), vehicle: saline
[18] = dose: 100.0 mg/kg/injection, schedule: Q01DX009 (ip), vehicle: Klucel (hydroxypropylcellulose) (HPC)
[19] = dose: 200.0 mg/kg/injection, schedule: Q01DX009 (ip), vehicle: Klucel (hydroxypropylcellulose) (HPC)
[20] = dose: 400.0 mg/kg/injection, schedule: Q01DX009 (ip), vehicle: Klucel (hydroxypropylcellulose) (HPC)
[21] = dose: 75.0 mg/kg/injection, schedule: Q01DX001 (ip), vehicle: saline
[22] = dose: 150.0 mg/kg/injection, schedule: Q01DX001 (ip), vehicle: saline

Measured: T/C

CCSC(C(O)C(O)C(O)C(O)CO)n1ccc(=O)[nH]c1=O (stereo not given)
inactive: [1] 100 % of control | [2] 88 % of control | [3] 103 % of control | [4] 100 % of control | [5] 93 % of control | [6] 93 % of control | [7] 94 % of control | [8] 102 % of control | [9] 94 % of control | [10] 87 % of control | [11] 92 % of control

Nc1ccc(S(=O)(=O)Nc2ncccn2)cc1
inactive: [12] 96 % of control | [13] 103 % of control | [14] 97 % of control | [15] 92 % of control | [16] 103 % of control | dose: 400.0 mg/kg/injection, schedule: Q04DX002 (ip), vehicle: Klucel (hydroxypropylcellulose) (HPC) 103 % of control

O=C(O)c1cc(F)ccc1F
inactive: [13] 97 % of control | [15] 108 % of control

CC(C)[N+]1=C(/C=C/c2ccc3cccnc3c2O)C(C)(C)c2ccccc21
inactive: dose: 50.0 mg/kg/injection, schedule: Q01DX001 (ip), vehicle: carboxymethylcellulose (CMC) 97 % of control | dose: 100.0 mg/kg/injection, schedule: Q01DX001 (ip), vehicle: carboxymethylcellulose (CMC) 103 % of control | dose: 200.0 mg/kg/injection, schedule: Q01DX001 (ip), vehicle: carboxymethylcellulose (CMC) 95 % of control | dose: 400.0 mg/kg/injection, schedule: Q01DX001 (ip), vehicle: carboxymethylcellulose (CMC) 95 % of control

C[n+]1c(/C=C\C=C\N2CCCCC2)sc2ccccc21
inactive: dose: 1.25 mg/kg/injection, schedule: Q04DX002 (ip), vehicle: saline with Tween-80 97 % of control | dose: 2.5 mg/kg/injection, schedule: Q04DX002 (ip), vehicle: saline with Tween-80 108 % of control

CC(=O)O/C=C1\CC2C3CC=C4CC(OC(C)=O)CCC4(C)C3CCC2(C)C1=O (stereo not given)
inactive: dose: 200.0 mg/kg/injection, schedule: Q01DX001 (ip), vehicle: saline with Tween-80 90 % of control | dose: 400.0 mg/kg/injection, schedule: Q01DX001 (ip), vehicle: saline with Tween-80 90 % of control

CC(=O)Nc1ccccc1C(C)=O
inactive: [3] 92 % of control | [7] 93 % of control | [11] 93 % of control

CCN(CC)C(=S)[S][Sn]([c]1ccccc1)([c]1ccccc1)[c]1ccccc1
inactive: dose: 100.0 mg/kg/injection, schedule: Q01DX001 (ip), vehicle: steriod suspending solution 109 % of control | dose: 200.0 mg/kg/injection, schedule: Q01DX001 (ip), vehicle: steriod suspending solution 98 % of control | dose: 400.0 mg/kg/injection, schedule: Q01DX001 (ip), vehicle: steriod suspending solution 98 % of control

CCNC(=O)NCCN1CCOCC1
inactive: [17] 95 % of control | [5] 98 % of control | [9] 104 % of control

O=[N+]([O-])c1cc2c(cc1Br)C1C(C3C2C(Cl)(Cl)C(Cl)=C(Cl)C3(Cl)Cl)C(Cl)(Cl)C(Cl)=C(Cl)C1(Cl)Cl (stereo not given)
inactive: [12] 95 % of control | [14] 100 % of control | [16] 94 % of control

CCCCCCCC(N)CC(=O)O (stereo not given)
inactive: [18] 105 % of control | [19] 97 % of control | [20] 107 % of control

CC(O)CC(=O)NN (stereo not given)
inactive: [12] 98 % of control | [14] 100 % of control | [16] 93 % of control

Cc1ccccc1Nc1c(C)cccc1C(=O)O
inactive: [17] 100 % of control | [5] 92 % of control | [9] 86 % of control

C1CSC2(CCC(C3CCC4(CC3)SCCS4)CC2)S1 (stereo not given)
inactive: dose: 75.0 mg/kg/injection, schedule: Q01DX009 (ip), vehicle: saline 92 % of control | [12] 88 % of control | dose: 150.0 mg/kg/injection, schedule: Q01DX009 (ip), vehicle: saline 97 % of control | [14] 91 % of control | dose: 300.0 mg/kg/injection, schedule: Q01DX009 (ip), vehicle: saline 87 % of control | [16] 93 % of control

CCOC(=O)c1cnc(SC)nc1Nc1ccc(Cl)cc1Cl
inactive: [18] 103 % of control | [19] 97 % of control | [20] 92 % of control

CC1OCC2OC(C)OC(C(COC(c3ccccc3)(c3ccccc3)c3ccccc3)OS(C)(=O)=O)C2O1 (stereo not given)
inactive: [17] 101 % of control | dose: 100.0 mg/kg/injection, schedule: Q04DX003 (ip), vehicle: saline 102 % of control | [5] 106 % of control | dose: 200.0 mg/kg/injection, schedule: Q04DX003 (ip), vehicle: saline 98 % of control | [9] 88 % of control | dose: 400.0 mg/kg/injection, schedule: Q04DX003 (ip), vehicle: saline 93 % of control

CCOC(=O)c1[nH]c(C)c(C(=O)OC(C)(C)C)c1C
inactive: [1] 95 % of control | [2] 95 % of control | [4] 93 % of control | [6] 106 % of control | [8] 92 % of control | [10] 103 % of control

NC(CCl)=NCC12CC3CC(CC(C3)C1)C2
inactive: [13] 98 % of control | [15] 104 % of control and 87 % of control

NC(=O)C(NC(=O)Nc1ccccc1)C(N)=O
inactive: dose: 12.5 mg/kg/injection, schedule: Q04DX003 (ip), vehicle: gum acacia 100 % of control | dose: 25.0 mg/kg/injection, schedule: Q04DX003 (ip), vehicle: gum acacia 97 % of control | dose: 50.0 mg/kg/injection, schedule: Q04DX003 (ip), vehicle: gum acacia 92 % of control | dose: 100.0 mg/kg/injection, schedule: Q04DX003 (ip), vehicle: gum acacia 98 % of control

O=C(C1C(c2ccccc2)C1c1ccccc1)N(CCCl)Cc1ccccc1 (stereo not given)
inactive: dose: 25.0 mg/kg/injection, schedule: Q04DX002 (ip), vehicle: Klucel (hydroxypropylcellulose) (HPC) 97 % of control | dose: 50.0 mg/kg/injection, schedule: Q04DX002 (ip), vehicle: Klucel (hydroxypropylcellulose) (HPC) 87 % of control | [13] 100 % of control

CCC1CCC(NC(C)=O)CC1 (stereo not given)
inactive: dose: 25.0 mg/kg/injection, schedule: Q01DX001 (ip), vehicle: saline with Tween-80 96 % of control | dose: 50.0 mg/kg/injection, schedule: Q01DX001 (ip), vehicle: saline with Tween-80 108 % of control | dose: 100.0 mg/kg/injection, schedule: Q01DX001 (ip), vehicle: saline with Tween-80 94 % of control

Cc1c[n+](Cc2ccccc2)cc(C)n1
inactive: [21] 105 % of control | [22] 98 % of control

C(C[P+](c1ccccc1)(c1ccccc1)c1ccccc1)=C(c1ccccc1)c1ccccc1
inactive: dose: 10.0 mg/kg/injection, schedule: Q01DX001 (ip), vehicle: saline 103 % of control | dose: 40.0 mg/kg/injection, schedule: Q01DX001 (ip), vehicle: saline 95 % of control

O=C(O)c1ccc(F)c([N+](=O)[O-])c1
inactive: dose: 100.0 mg/kg/injection, schedule: Q04DX002 (ip), vehicle: saline 102 % of control | dose: 200.0 mg/kg/injection, schedule: Q04DX002 (ip), vehicle: saline 113 % of control | dose: 400.0 mg/kg/injection, schedule: Q04DX002 (ip), vehicle: saline 107 % of control

Cc1ccc(Cl)cc1NC(=O)Oc1ccc(Cl)cc1C
inactive: dose: 12.5 mg/kg/injection, schedule: Q01DX009 (ip), vehicle: Klucel (hydroxypropylcellulose) (HPC) 95 % of control | dose: 25.0 mg/kg/injection, schedule: Q01DX009 (ip), vehicle: Klucel (hydroxypropylcellulose) (HPC) 95 % of control | dose: 50.0 mg/kg/injection, schedule: Q01DX009 (ip), vehicle: Klucel (hydroxypropylcellulose) (HPC) 97 % of control | [18] 96 % of control

C=CCC1(CCCCC)C(=O)NC(=S)NC1=O
inactive: [21] 100 % of control | [22] 100 % of control

O=C1NC2NC(=O)NC2N1 (stereo not given)
inactive: dose: 100.0 mg/kg/injection, schedule: Q01DX009 (ip), vehicle: saline with Tween-80 98 % of control | [3] 112 % of control | dose: 200.0 mg/kg/injection, schedule: Q01DX009 (ip), vehicle: saline with Tween-80 115 % of control | [7] 98 % of control | dose: 400.0 mg/kg/injection, schedule: Q01DX009 (ip), vehicle: saline with Tween-80 96 % of control | [11] 101 % of control
